From patent publication US7803779B2, “Drugs for the treatment and/or prophylaxis of gastroparesis symptom” (Chugai Seiyaku Kabushiki Kaisha, priority 2005, dated 2010)
“Also recorded” adds a separate entry of the source.

What was measured:
[1] = tested on: patients with gastroparesis; conditions: 383 patients, both delayed and non-delayed gastric emptying; cited from earlier work
[2] = tested on: gastric emptying; conditions: clinical; cited from earlier work
[3] = tested on: diabetic patients presenting with gastroparesis symptom despite a normal level of gastric emptying; assay: Effect of GM-611 on gastroparesis symptom in diabetic patients with a normal level of gastric emptying (Example 1, FIG. 1); format: in vivo, human
Excerpt: FIG. 1, which is titled “Effect of GM-611 on gastroparesis symptom in diabetic patients with a normal level of gastric emptying”, is a graph showing results of evaluating the percentage of responders who were in the patients the gastroparesis symptom regardless a normal level of gastric emptying and who perceived an adequate relief of gastroparesis symptom by the administration of the therapeutic and/or preventive agent against gastroparesis symptom according to the present invention; M1R (month 1 responder) refers to patients who had adequate relief in at least 50% of weekly evaluations for the first one month of medication and CR (complete responder) refers to patients who were evaluated as monthly responder for three consecutive months.
(§1) In the following examples, GM-611 (8,9-didehydro-N-demethyl-9-deoxo-6,11-dideoxy-6,9-epoxy-12-O-methyl-N-(1-methylethyl)-11-oxoerythromycin,(2E)-2-butenedioate) was used as a compound of the formula (1). This compound was synthesized in the laboratories of Chugai Pharmaceutical Co., Ltd. as described in WO02/18403 and WO02/30943. To evaluate the efficacy of GM-611 in improving subjective gastroparesis symptom, diabetic patients on insulin therapy were selected. Since the analyses in the following examples were after the key-open of clinical trial, P<0.01 in a two-tail test was considered to show a significant effect and P<0.1 a tendency.
In order to assess the efficacy of GM-611 in improving subjective gastroparesis symptom, diabetic patients who were presenting with gastroparesis symptom despite a normal level of gastric emptying were selected. […] All assessment in the subjective gastroparesis symptom was evaluated by an electric diary by phone. Starting one week after the initiation of medication, the patients were interviewed every week and asked whether in the past 7 days, you have had adequate relief of your gastroparesis symptoms, and the yes/no answers were recorded. […] Patients who were evaluated as monthly responder for three consecutive months. were assigned as “complete responders” (CR).

[4] = tested on: patients of type 1 diabetes with gastroparesis symptom and a normal level of gastric emptying; assay: Effect of GM-611 on gastroparesis symptom in patients of type 1 diabetes with a normal level of gastric emptying (Example 2, FIG. 2); format: in vivo, human; conditions: type 1 diabetes patients only
Excerpt: FIG. 2, which is titled “Effect of GM-611 on gastroparesis symptom in patients of type 1 diabetes with a normal level of gastric emptying”, is a graph showing results of evaluating the percentage of responders who were in the patients of type 1 diabetes with the gastroparesis symptom regardless a normal level of gastric emptying and who perceived an adequate relief of gastroparesis symptom by the administration of the therapeutic and/or preventive agent against gastroparesis symptom according to the present invention; M1R (month 1 responder) refers to patients who had adequate relief in at least 50% of weekly evaluations for the first one month of medication and CR (complete responder) refers to patients who were evaluated as monthly responder for three consecutive months.
as §1
(§2) In order to assess the efficacy of GM-611 in improving subjective gastroparesis symptom, diabetic patients who were presenting with gastroparesis symptom despite a normal level of gastric emptying were selected. […] All assessment in the subjective gastroparesis symptom was evaluated by an electric diary by phone. Starting one week after the initiation of medication, the patients were interviewed every week and asked whether in the past 7 days, you have had adequate relief of your gastroparesis symptoms, and the yes/no answers were recorded. […] Patients who were evaluated as monthly responder for three consecutive months. were assigned as “complete responders” (CR). […]

[5] = tested on: diabetic patients with good glycemic control (hemoglobin A1C no more than 8%) with a normal level of gastric emptying; assay: Effect of GM-611 on gastroparesis symptom in diabetic patients of good glycemic control with a normal level of gastric emptying (Example 3, FIG. 3); format: in vivo, human
Excerpt: FIG. 3, which is titled “Effect of GM-611 on gastroparesis symptom in diabetic patients of good glycemic control with a normal level of gastric emptying”, is a graph showing results of evaluating the percentage of responders who were in the diabetic patients with good glycemic control with the gastroparesis symptom regardless a normal level of gastric emptying and who perceived an adequate relief of gastroparesis symptom by the administration of the therapeutic and/or preventive agent against gastroparesis symptom according to the present invention; M1R (month 1 responder) refers to patients who had adequate relief in at least 50% of weekly evaluations for the first one month of medication and CR (complete responder) refers to patients who were evaluated as monthly responder for three consecutive months.
as §1, with “Since the analyses in the following examples were after the key-open of clinical trial, P<0.01 in a two-tail test was considered to show a significant effect and P<0.1 a tendency.” left out
as §2

[6] = tested on: diabetic patients with a longer-than-ten-year history of diabetes with a normal level of gastric emptying; assay: Effect of GM-611 on gastroparesis symptom in diabetic patients of diabetic history longer than 10 years with a normal level of gastric emptying (Example 4, FIG. 4); format: in vivo, human
Excerpt: FIG. 4, which is titled “Effect of GM-611 on gastroparesis symptom in diabetic patients of diabetic history longer than 10 years with a normal level of gastric emptying”, is a graph showing results of evaluating the percentage of responders who were in the diabetic patients of diabetic history longer than 10 years with the gastroparesis symptom regardless a normal level of gastric emptying and who perceived an adequate relief of gastroparesis symptom by the administration of the therapeutic and/or preventive agent against gastroparesis symptom according to the present invention; M1R (month 1 responder) refers to patients who had adequate relief in at least 50% of weekly evaluations for the first one month of medication and CR (complete responder) refers to patients who were evaluated as monthly responder for three consecutive months.
as §1, with “Since the analyses in the following examples were after the key-open of clinical trial, P<0.01 in a two-tail test was considered to show a significant effect and P<0.1 a tendency.” left out
as §2

CC[C@H]1OC(=O)[C@H](C)[C@@H](O[C@H]2C[C@@](C)(OC)C[C@H](C)O2)[C@H](C)[C@@H](O[C@@H]2O[C@H](C)C[C@H](N(C)CC)[C@H]2O)[C@@]2(C)CC(C)=C(O2)[C@H](C)[C@@H](O)[C@H]1C [ABT-229]
efficacy on gastroparesis symptom [1]: no efficacy | acceleration of gastric emptying [2]: capable of accelerating gastric emptying

CC[C@H]1OC(=O)[C@H](C)[C@@H](O[C@H]2C[C@@](C)(OC)[C@@H](O)[C@H](C)O2)[C@H](C)[C@@H](O[C@@H]2O[C@H](C)C[C@H](N(C)C(C)C)[C@H]2O)[C@@]2(C)CC(C)=C(O2)[C@H](C)C(=O)[C@]1(C)OC.O=C(O)/C=C/C(=O)O [GM-611, 8,9-didehydro-N-demethyl-9-deoxo-6,11-dideoxy-6,9-epoxy-12-O-methyl-N-(1-methylethyl)-11-oxoerythromycin,(2E)-2-butenedioate]
dose dependency of efficacy [3]: no apparent dose dependency | P, CR rate in whole GM-611 treated group vs. placebo group by chi-square test ([3]; complete responders, 3 months): 0.025 | percentage of responders who had adequate relief in gastroparesis symptom vs placebo group ([3]; twice daily at meals for 3 months, both GM-611 groups): greater than those in the placebo group; also recorded: only a tendency to improve the symptom | P, CR rate in whole GM-611 treated group vs. placebo group by chi-square test [4]: 0.001 | dose dependency of efficacy [4]: dose-dependent | efficacy in improving the symptom ([4]; normal gastric emptying): significant | P, CR rate in whole GM-611 treated group vs. placebo group by chi-square test [5]: 0.010 | dose dependency of efficacy [5]: dose-dependent manner | efficacy in improving the symptom [5]: significant efficacy in improving the symptom | P, CR rate in whole GM-611 treated group vs. placebo group by chi-square test [6]: 0.001 | dose dependency of efficacy [6]: dose-dependent manner | efficacy in improving the symptom [6]: significant efficacy in improving the symptom
